# Target: α-glucosidase
# Assay: colorimetric p-NPG hydrolysis assay, […] nm, triplicate
# Type: biochemical, Saccharomyces cerevisiae
substance,measurement,value
"12-(3-carboxyfuran-2-yl)-trinorlabda-5,9-dien-15-oic acid [parasitic acid]",IC50,36.29 ± 1.06 µg/mL

# — article PMC12735834, “Novel Trinorditerpene from Dysoxylum parasiticum (Osbeck) Kosterm: Leaf Extract with Cytotoxic, Antioxidant and α-Glucosidase Inhibitory Activities” (Molecules, 2025)
